The values that follow come from patent publication US20030044974A1, “Method for collecting cells in M phase or G1 phase and method for nuclear transplantation using the cells” (priority 2001, published 2003).

Marks after values point to notes of the source that are not given here.

Assay [1] relates to bovine fibroblast cells. As to the kind of experiment: Combination of metaphase-synchronizing agent and shaking treatment: cell cycles of cells recovered from culture supernatant (Comparative Example 2). The assay is classed as cell-based. As to the method:
Fibroblast Cells and Observation Thereof Fetal fibroblast cells were recovered by collecting the medium containing the cells in a 15 ml test tube and by centrifuging the medium (180g, 5 minutes). After the centrifugation, the cell precipitate was resuspended with a small amount of the medium, and the resulting cell suspension was uniformly smeared on a slide glass. The slide glass was air-dried at room temperature and the cells were fixed (99.9% ethanol, 5 minutes) to prepare preparations.
Thirty minutes later, the whole culture supernatant was recovered after subjecting the petri dish to shaking treatment, or without the shaking treatment. The shaking treatment was carried out by intimately attaching the bottom plate of the plastic petri dish to a mixer (IKEDA RIKA, D-10) and driving the mixer to circularly move the petri dish for 1 minute (3000 rpm, diameter of circular movement: 0.3 cm). […] The cell pellet was resuspended in a small amount of the medium and the obtained cell suspension was smeared on a slide glass.
How the cell cycles of the cells recovered from the culture supernatant change by combination of the metaphase-synchronizing agent (2-MeOE2) and the shaking treatment was investigated with successively repeating the step of shaking treatment and the subsequent recovery 3 times. […] Thirty minutes later, shaking treatment was performed as in the first time and the second time, and the culture supernatant was centrifuged to recover the cells (third time recovered cells). The cells obtained using different concentrations of the metaphase-synchronizing agent and obtained in different times of recovery were respectively resuspended in a small amount of the medium and smear preparations were prepared. The smear preparations were air-dried, fixed, stained and observed.

Assay [2] deals with bovine fibroblast cells. As to the kind of experiment: Collection of M phase cells: synchronization, shaking treatment and selection by size with 20 μm pipette (Example 1).
From the text: As the bovine fibroblast cells (Japanese black), the cells from a fetal at Day 54 from conception were used. The recovered fetus was aseptically minced and digested with trypsin. The cell suspension was recovered and cultured in Dulbecco's modified eagle medium (D-MEM, Gibco BRL, Cat No. 11885-084, MD, USA), followed by storing frozen cells (one passage). For experiments, the frozen stored cells seeded on a 10 cm plastic petri dish (Falcon, 353003) were once subcultured, and the cells grown to logarithmic growth phase were used.
For synchronization to metaphase, 10% FBS-containing minimum essential medium (S-MEM, Cat. No.11385-036,Gibco BRL, MD, USA) supplemented with 2-methoxyestadiol (2-MeOE2, Cat No.M6383, Sigma chemical Co., MO, USA) to a concentration of 0.5 μM or 1 μM was used.
Each preparation was stained with Hoechst 33342 (Sigma Chemical Co, MO, USA) and observed with a fluorescence microscope. Only the cells having clear boundary of cell membrane were used for judgment. In Comparative Examples 1 and 2, the cells in prophase, metaphase, anaphase and telophase of cell cycle were classified into the cells in mitotic phase (M phase). The cells containing only one nucleus covered with a nuclear membrane were judged as the cells in interphase. The cells in which the nucleus in the cytoplasm is fragmented, the cells containing no nucleus in the cytoplasm, and the cells having a lot of nuclei in the cytoplasm were judged as abnormal cells. In Examples 1 and 2, M phase cells were further classified into normal metaphase cells (the one nucleus in metaphase is located in the cytoplasm) and abnormal metaphase cells (the two or more nuclei in metaphase are located in the cytoplasm). The cells in interphase were classified into normal interphase cells (only one nucleus having nuclear membrane exists in the cytoplasm) and abnormal interphase cells (two or more nuclei having nuclear membrane exist in the cytoplasm, or the nucleus in the cytoplasm is fragmented).
D-MEM medium in a petri dish containing cells in logarithmic growth phase was replaced with 5 ml of S-MEM medium containing 1.0 μM 2-MeOE2, and the culturing was continued. Thirty minutes later, the shaking treatment was carried out as in Comparative Example 1 and the culture supernatant was discarded. To the petri dish after discarding the culture supernatant, fresh S-MEM medium containing 1 μM 2-MeOE2 was added and the culture was continued for another 30 minutes. Thirty minutes later, the shaking treatment was carried out as described above and the culture supernatant was centrifuged (1000 rpm, 5 minutes) to recover the cells (second time recovered cells). An aliquot of the collected cells was transferred to D-MEM medium containing 1 μM 2-MeOE2, and substantially spherical cells having clear boundary of cell membrane and having a diameter slightly larger than 20 μm were selected within 30 minutes using a glass pipette (COOK, Cat.No.PBBP-2000) having an inner diameter of 20 μm. The selected cells were immediately transferred to phosphate buffered saline (D-PBS) containing Hoechst33342 and 1 μM 2-MeOE2, and cell cycles were determined under an inverted fluorescence microscope.
The next assay deals with cells. The conditions noted are these: nocodazole treatment, cells collected by the shaking method; cited from earlier work.
Setting [3] is: 0.5 μM 2-MeOE2, first time recovered cells.
[4] abbreviates: 0.5 μM 2-MeOE2, first time recovered cells, of 2046 observed cells.
Setting [5] is: 0.5 μM 2-MeOE2, second time recovered cells.
The mark [6] stands for this setting: 0.5 μM 2-MeOE2, second time recovered cells, of 2078 observed cells.
Setting [7] is: 0.5 μM 2-MeOE2, third time recovered cells.
The mark [8] stands for this setting: 0.5 μM 2-MeOE2, third time recovered cells, of 2052 observed cells.
The mark [9] stands for this setting: 1 μM 2-MeOE2, first time recovered cells.
Setting [10] is: 1 μM 2-MeOE2, first time recovered cells, of 2033 observed cells.
Setting [11] is: 1 μM 2-MeOE2, second time recovered cells.
Setting [12] is: 1 μM 2-MeOE2, second time recovered cells, of 2075 observed cells.
The mark [13] stands for this setting: 1 μM 2-MeOE2, third time recovered cells.
[14] abbreviates: 1 μM 2-MeOE2, third time recovered cells, of 2126 observed cells.
[15] abbreviates: 1 μM 2-MeOE2, second culture, shaking treatment, diameter not less than about 20 μm.
Setting [16] is: 1 μM 2-MeOE2, second time recovered cells, 20 μm pipette, of 249 observed cells.
The mark [17] stands for this setting: 1 μM 2-MeOE2, second time recovered cells, selected with 20 μm pipette.

Consider `COc1cc2c(cc1O)CC[C@@H]1[C@@H]2CC[C@]2(C)[C@@H](O)CC[C@@H]12` [2-MeOE2, 2-methoxyestradiol], for which the “Number of Metaphase Cells (mean ± SD(%))” value is “(28.8 ± 3.0^a) %” in the assay on bovine fibroblast cells [1] (0.5 μM 2-MeOE2, 30 min, first time recovered cells, shaking treatment); “(45.2 ± 7.9^bc) %” in the assay on bovine fibroblast cells [1] (setting [5]); “(46.0 ± 7.5^c) %” in the assay on bovine fibroblast cells [1] (setting [7]); “(50.1 ± 8.6^d) %” with bovine fibroblast cells [1] (setting [9]); “(77.7 ± 5.4^e) %” in the assay with bovine fibroblast cells [1] (setting [11]); “(81.2 ± 5.0^f) %” in the assay on bovine fibroblast cells [1] (setting [13]). For the same compound, the “Number of Abnormal Cells (mean ± SD(%))” value in the assay with bovine fibroblast cells [1] (setting [3]) is given as “(15.4 ± 5.8^a) %”; with bovine fibroblast cells [1] (setting [5]) it was “(6.6 ± 4.2^bc) %”; in the assay with bovine fibroblast cells [1] (setting [7]) it was “(6.4 ± 3.9^c) %”; with bovine fibroblast cells [1] (setting [9]), “(11.4 ± 5.6^d) %”; in the assay with bovine fibroblast cells [1] (setting [11]), “(3.1 ± 1.5^ef) %”; in the assay with bovine fibroblast cells [1] (setting [13]), “(3.2 ± 1.7^f) %”. The “Number of Normal Interphase Cells (mean ± SD(%))” value with bovine fibroblast cells [1] (setting [3]) is listed as “(55.8 ± 3.6^a) %”; in the assay on bovine fibroblast cells [1] (setting [7]), “(47.6 ± 4.7^c) %”; in the assay with bovine fibroblast cells [1] (setting [9]), “(38.5 ± 6.8^d) %”; in the assay on bovine fibroblast cells [1] (setting [11]), “(19.2 ± 5.0^ef) %”; in the assay on bovine fibroblast cells [1] (setting [13]) it was “(15.6 ± 3.3^f) %”; with bovine fibroblast cells [2] (setting [17]), “(1.0 ± 1.1) %”. Moreover, the “Number of Abnormal Cells” value in the assay on bovine fibroblast cells [1] (setting [4]) came out at 313; in the assay on bovine fibroblast cells [1] (setting [6]), 135; in the assay on bovine fibroblast cells [1] (setting [8]), 130; in the assay with bovine fibroblast cells [1] (setting [10]), 232; in the assay with bovine fibroblast cells [1] (setting [12]) it was 63; in the assay with bovine fibroblast cells [1] (setting [14]), 68. The “Number of Metaphase Cells” value in the assay on bovine fibroblast cells [1] (setting [4]) was found to be 591; with bovine fibroblast cells [1] (setting [6]), 940; in the assay with bovine fibroblast cells [1] (setting [8]), 945; in the assay on bovine fibroblast cells [1] (setting [10]) it was 1017; with bovine fibroblast cells [1] (setting [12]) it was 1614; with bovine fibroblast cells [1] (setting [14]) it was 1728. Besides, the “Number of Normal Interphase Cells” value was determined as 1142 with bovine fibroblast cells [1] (setting [4]); 1003 in the assay with bovine fibroblast cells [1] (setting [6]); 977 in the assay on bovine fibroblast cells [1] (setting [8]); 784 in the assay with bovine fibroblast cells [1] (setting [10]); 398 in the assay on bovine fibroblast cells [1] (setting [12]); 330 with bovine fibroblast cells [1] (setting [14]). For the same compound, the “Number of Normal Interphase Cells” value in the assay on bovine fibroblast cells [2] (setting [16]) came to 3. Also, in the assay with bovine fibroblast cells [1] (0.5 μM or 1.0 μM 2-MeOE2 with shaking treatment, first to third time recovered cells, shaking only 26.1%), the “percentage of the M phase cells” value was 28.8 to 81.2%. Further, in the assay with bovine fibroblast cells [2] (setting [15]), the “M phase cells among the collected cells” value is reported as 99.1%. For the same compound, the “normal metaphase cells among the collected cells (243/246)” value with bovine fibroblast cells [2] (setting [15]) worked out at 98.8%. Also, the “Number of Abnormal Interphase Cells” value in the assay on bovine fibroblast cells [2] (setting [16]) is reported as 0. In addition, the “Number of Abnormal Metaphase Cells” value with bovine fibroblast cells [2] (setting [16]) was determined as 3. Besides, the “Number of Normal Metaphase Cells” value with bovine fibroblast cells [2] (setting [16]) is recorded as 243. In the assay with bovine fibroblast cells [2] (setting [17]), the “Number of Abnormal Interphase Cells (mean ± SD(%))” value is “(0.0 ± 0.0) %”. Also, the “Number of Abnormal Metaphase Cells (mean ± SD(%))” value in the assay on bovine fibroblast cells [2] (setting [17]) is given as “(1.3 ± 2.5) %”. Also, in the assay with bovine fibroblast cells [2] (setting [17]), the “Number of Normal Metaphase Cells (mean ± SD(%))” value is “(97.8% ± 2.1)”.
Regarding `COC(=O)Nc1nc2ccc(C(=O)c3cccs3)cc2[nH]1` [nocodazole], the “cells in the metaphase obtained” value with cells is reported as 25 to 34%.
